≈ marks a conversion by molar mass, not a printed value.

The test system of the experiment is P388 mouse leukemia cells. Put plainly: Activity against tumor cell growth (P388, MTT, 72 h). Format: cell-based. The note with it: P388 mouse leukemia cells, 72 h, 37° C., MTT; read-out: IC50 (50% growth inhibition concentration). Here is the method:
Using a culture medium RPMI1640 supplemented with 10% inactivated bovine fetal serum, 2 mM glutamine, 100 μ/ml kanamycin sulfate, and 5 μM 2-hydroxyethyldisulfide (This culture medium is hereinafter referred to simply as "culture medium"), P388 mouse leukemia cells were diluted to a concentration of 1.5×10^5 cells/ml in the culture medium, and were placed in each well of 96-well multiplate in 60 μl portions. Separately, the test compound was dissolved in dimethylsulfoxide and was adequately diluted with the culture medium. The diluted solution containing test compound was added to the wells of the above plate respectively in 60 μl portions. Then the cells were incubated in a CO2 -incubator (5% CO2, 37° C.) for 72 hours.
The surviving cell numbers were measured according to the Mosmann's method (J. Immunol. Meth., 65 55-63, 1983) as follows. A 2.5 mg/ml solution of MTT (3-[4,5-dimethylthiazol-2-yl]-2,5-diphenyltetrazolium bromide) in Dulbecco's phosphate buffer solution (PBS) was prepared and added to each of the wells by 20 μl. The cells were further incubated for 3 hours. A 150 μl portion of 0.04N hydrochloric acid-isopropanol solution was added to each of the wells, and MTT-formazane formed was allowed to dissolve by pipetting. The absorbance of the solutions was measured at 540 nm taking the no-cell-containing [solution as the background. The 50% growth inhibition concentration (ICs50) was calculated from ratio of the absorbances of the treated samples to the absorbance of the no-medicine-treated sample, and from the concentration of the test compound.
Take `COC(=O)c1c(C(F)(F)F)[nH]c2c(O)cc3c(c12)[C@H](CCl)CN3C(=O)c1cc2cc(OC)c(OC)c(OC)c2o1` [Example 69, Methyl (1S)-1-chloromethyl-5-hydroxy-7-trifluoromethyl-3-(5,6,7-trimethoxybenzofuran-2-ylcarbonyl)-1,2,3,6-tetrahydropyrrolo[3,2-e]indole-8-carboxylate]: the IC50 was 0.046 ng/mL (≈ 0.0789 nM).

In the case of `COC(=O)c1c(C(F)(F)F)[nH]c2c(O)cc3c(c12)[C@H](CCl)CN3C(=O)c1cc2c(OC)cccc2o1` [Example 66, Methyl (1S)-1-chloromethyl-5-hydroxy-3-(4-methoxybenzofuran-2-ylcarbonyl)-7-trifluoromethyl-1,2,3,6-tetrahydropyrrolo[3,2-e]indole-8-carboxylate], the IC50 amounted to 0.77 ng/mL (≈ 1.47 nM).

For the molecule `COC(=O)c1c(C(F)(F)F)[nH]c2c(O)cc3c(c12)C(CCl)CN3C(=O)c1cc2cc(NC(=O)c3cc4ccccc4[nH]3)ccc2[nH]1` (centres unmarked) [Example 9, Methyl 1-chloromethyl-5-hydroxy-3-[5-[(1H-indol-2-ylcarbonyl)amino]-1H-indol-2-ylcarbonyl]-7-trifluoromethyl-1,2,3,6-tetrahydropyrrolo[3,2-e]indole-8-carboxylate], the IC50 is 0.76 ng/mL (≈ 1.17 nM). With `COC(=O)c1c(C(F)(F)F)[nH]c2c(O)cc3c(c12)C(CBr)CN3C(=O)c1cc2cc(NC(=O)c3cnc4ccccc4c3)ccc2[nH]1` (centres unmarked) [Example 42, Methyl 1-bromomethyl-5-hydroxy-3-[5-[(quinoline-3-ylcarbonyl)amino]-1H-indol-2-ylcarbonyl]-7-trifluoromethyl-1,2,3,6-tetrahydropyrrolo[3,2-e]indole-8-carboxylate], the IC50 is 0.13 ng/mL (≈ 0.184 nM). On to `COC(=O)c1c(C(F)(F)F)[nH]c2c(O)cc3c(c12)C(CBr)CN3C(=O)c1cc2cc(NC(=O)c3cc4c(OC)c(OC)c(OC)cc4[nH]3)ccc2[nH]1` (centres unmarked) [Example 40, Methyl 1-bromomethyl-5-hydroxy-7-trifluoromethyl-3-[5-[(4,5,6-trimethoxy1H-indol-2-ylcarbonyl)amino]-1H-indol-2-ylcarbonyl]-1,2,3,6-tetrahydropyrrolo[3,2-e]indole-8-carboxylate], for which the IC50 turned out to be 0.08 ng/mL (≈ 0.102 nM). The value for `COC(=O)c1c(C(F)(F)F)[nH]c2c1C13CC1CN(C(=O)c1cc4cc(NC(=O)c5cnc6ccccc6c5)ccc4[nH]1)C3=CC2=O` (centres unmarked) [Example 30, Methyl 3-[5-[(quinoline-3-ylcarbonyl)amino]-1H-indol-2-ylcarbonyl]-6-trifluoromethyl-1,2,8,8a-tetrahydrocyclopropa[c]pyrrolo[3,2-e]indol-4 (5H)-one-7-carboxylate] was 0.22 ng/mL (≈ 0.352 nM); that for `COC(=O)c1c(C(F)(F)F)[nH]c2c(O)cc3c(c12)C(CBr)CN3C(=O)c1cc2cc(NC(=O)c3cc4c(OC)c(OC)c(OC)cc4cn3)ccc2[nH]1` (centres unmarked) [Example 44, Methyl 1-bromomethyl-5-hydroxy-7-trifluoromethyl-3-[5-[(5,6,7-trimethoxyisoquinolin-3-ylcarbonyl)amino]-1H-indol-2-ylcarbonyl]-1,2,3,6-tetrahydropyrrolo[3,2-e]indole-8-carboxylate] was 0.07 ng/mL (≈ 0.0879 nM); that for `COC(=O)c1c(C(F)(F)F)[nH]c2c(O)cc3c(c12)[C@H](CCl)CN3C(=O)/C=C/c1ccc(OC)cc1` [Example 74, Methyl (1S)-1-chloromethyl-5-hydroxy-3-[2-(4-methoxyphenyl)ethylene-1-ylcarbonyl]-7-trifluoromethyl-1,2,3,6-tetrahydropyrrolo[3,2-e]indole-8-carboxylate] was 1.3 ng/mL (≈ 2.55 nM). The value for `COC(=O)c1c(C(F)(F)F)[nH]c2c1[C@@]13C[C@@H]1CN(C(=O)c1cc4cc(NC(=O)OC(C)(C)C)ccc4[nH]1)C3=CC2=O` [Example 84, Methyl (7bR, 8aS)-2-[5-(t-butoxycarbonyl)amino-1H-indole-2-ylcarbonyl]-6-trifluoromethyl-1,2,8,8a-tetrahydrocyclopropa[c]pyrrolo[3,2-e]indole-4 (5H)-one-7-carboxylate] was 1.7 ng/mL (≈ 2.98 nM). For `COC(=O)c1c(C(F)(F)F)[nH]c2c(O)cc3c(c12)[C@H](CCl)CN3C(=O)c1cc2cc(OC)ccc2o1` [Example 67, Methyl (1S)-1-chloromethyl-5-hydroxy-3-(5-methoxybenzofuran-2-ylcarbonyl)-7-trifluoromethyl-1,2,3,6-tetrahydropyrrolo[3,2-e]indole-8-carboxylate], the IC50 was 0.026 ng/mL (≈ 0.0497 nM).

For `COC(=O)c1c(C(F)(F)F)[nH]c2c1C13CC1CN(C(=O)c1cc4cc(NC(=O)c5cc6c(cn5)[nH]c5ccccc56)ccc4[nH]1)C3=CC2=O` (centres unmarked) [Example 33, Methyl 2-[5-[(9H-pyrido[3,4-b]indol-3-ylcarbonyl)amino]-1H-indol-2-ylcarbonyl]-6-trifluoromethyl-1,2,8,8a-tetrahydrocyclopropa[c]pyrrolo[3,2-e]indol-4 (5H)-one-7-carboxylate], the IC50 came out at 0.17 ng/mL (≈ 0.256 nM). Consider `COC(=O)c1c(C(F)(F)F)[nH]c2c(O)cc3c(c12)C(CBr)CN3C(=O)c1cc2cc(NC(=O)c3cc4c(cn3)[nH]c3ccccc34)ccc2[nH]1` (centres unmarked) [Example 45, Methyl 1-bromomethyl-5-hydroxy-3-[5-[(9H-pyrido[3,4-b]indol-3-ylcarbonyl)amino]-1H-indol-2-ylcarbonyl]-7-trifluoromethyl-1,2,3,6-tetrahydropyrrolo[3,2-e]indole-8-carboxylate], for which the IC50 was 0.12 ng/mL (≈ 0.161 nM). As for `COC(=O)c1c(C(F)(F)F)[nH]c2c(O)cc3c(c12)[C@H](CCl)CN3C(=O)c1cc2cc(NC(=O)CN(C)C)ccc2[nH]1` [Example 65, Methyl (1S)-1-chloromethyl-3-[5 (dimethylaminomethylcarbonyl)amino-1H-indol-2-ylcarbonyl]-5-hydroxy-7-trifluoromethyl-1,2,3,6-tetrahydropyrrolo[3,2-e]indole-8-carboxylate], the IC50 came to 0.11 ng/mL (≈ 0.186 nM). With `COC(=O)c1c(C(F)(F)F)[nH]c2c1C13CC1CN(C(=O)c1cc4cc(NC(=O)c5cc6cccc(OC)c6o5)ccc4[nH]1)C3=CC2=O` (centres unmarked) [Example 25, Methyl 2-[5-[(7-methoxybenzofuran-2-ylcarbonyl)amino]-1H-indol-2-ylcarbonyl]-6-trifluoromethyl-1,2,8,8a-tetrahydrocyclopropa[c]pyrrolo[3,2-e]indole-4 (5H)-one-7-carboxylate] the figure was 0.63 ng/mL (≈ 0.977 nM); with `COC(=O)c1c(C(F)(F)F)[nH]c2c(O)cc3c(c12)C(CBr)CN3C(=O)c1cc2cc(NC(=O)c3ccc4ccccc4c3)ccc2[nH]1` (centres unmarked) [Example 41, Methyl 1-bromomethyl-5-hydroxy-3-[5-[(naphthalene-3-ylcarbonyl)amino]-1H-indol-2-ylcarbonyl]-7-trifluoromethyl-1,2,3,6-tetrahydropyrrolo[3,2-e]indole-8-carboxylate], 1.6 ng/mL (≈ 2.27 nM); with `COC(=O)c1c(C(F)(F)F)[nH]c2c(O)cc3c(c12)[C@H](CCl)CN3C(=O)c1cc2cc(NC(=O)OC(C)(C)C)ccc2[nH]1` [Example 64, Methyl (1S)-3-[5-(t-butoxycarbonyl)amino-1H-indol-2-ylcarbonyl]-1-chloromethyl-5-hydroxy-7-trifluoromethyl-1,2,3,6-tetrahydropyrrolo[3,2-e]indole-8-carboxylate], 3.9 ng/mL (≈ 6.43 nM). With `COC(=O)c1c(C(F)(F)F)[nH]c2c(O)cc3c(c12)[C@H](CCl)CN3C(=O)c1cc2cccc(OC)c2o1` [Example 70, Methyl (1S)-1-chloromethyl-5-hydroxy-3-(7-methoxybenzofuran-2-ylcarbonyl)-7-trifluoromethyl-1,2,3,6-tetrahydropyrrolo[3,2-e]indole-8-carboxylate], the IC50 turned out to be 2 ng/mL (≈ 3.83 nM).

The values are drawn from patent US5629430A, “Trifluoromethylpyrroloindolecarboxylic acid ester and process for production thereof” (Kyorin Pharmaceutical Co., Ltd., priority 1992, dated 1997).
